Test results: US6300337A, “Acetamide derivative and use thereof” (Nippon Kayaku Kabushiki Kaisha, priority 1998, dated 2001)

Biological target: T1, human chymase (Homo sapiens, UniProt P23946)
T1 construct: 60 g human tonsillar gland was finely divided by scissors and a scalpel; from tissue; host or cells: human tonsillar gland
T1 sequence (P23946 22-247): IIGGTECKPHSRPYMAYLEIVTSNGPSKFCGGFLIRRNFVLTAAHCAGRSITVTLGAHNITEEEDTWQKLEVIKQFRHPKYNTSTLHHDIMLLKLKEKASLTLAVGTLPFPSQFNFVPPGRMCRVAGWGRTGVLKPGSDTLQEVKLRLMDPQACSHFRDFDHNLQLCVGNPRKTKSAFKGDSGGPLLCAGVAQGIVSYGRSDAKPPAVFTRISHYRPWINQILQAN
Assay: inhibitory activity on human chymase (angiotensin I as substrate, angiotensin II determined by HPLC)
Assay type: biochemical
Conditions: for inhibitory activity on chymase (in words): chymase species not given; for IC50: first table, pH 8.0, 37° C., 15 min, read-out: 50% Inhibitory concentration (IC50) human chymase
Description: It is known that chymase is present in tissues of various animals, and its isolation and purification methods are described in Anal. Biochem., 137, 449 (1984) and FEBS Letters, 323, 119 (1993). In the present invention, chymase was purified by the methods described in these literatures, and the present compounds were examined for inhibitory activity on human chymase or dog chymase. The specific methods are as follows:
60 g human tonsillar gland was finely divided by scissors and a scalpel, suspended in 0.1 M phosphate buffer (pH 8.0), and disrupted by a Polytron homogenizer for 5 minutes to prepare a crude chymase enzyme solution. The solution was centrifuged at 22000×g for 30 min, and the precipitate was used as a chymase enzyme fraction. The precipitate was washed by repeating the above procedure twice, and then suspended in 0.1 M phosphate buffer (pH 8.0) containing 2 M sodium chloride and 5% ammonium sulfate. The suspension was centrifuged at 27000×g for 20 min to give a supernatant as a chymase fraction. The supernatant was concentrated by ultrafiltration, applied to a G2000SW-XL column (6.0×300 mm), and eluted with 0.1 M phosphate buffer (pH 8.0). An active fraction decomposing succinyl leucyl leucyl valyl tyrosyl methylcoumarylamide (hereinafter referred to as the synthetic chymase substrate, made by Peptide Kenkyusho) was recovered, concentrated and used as a purified human chymase for the following activity measurement.
The inhibitory activity on the human chymase and dog chymase was measured using angiotensin I (made by Peptide Kenkyusho) for a substrate. 200 μl of 0.15 M Tris-HCl buffer (pH 8.0) containing 0.1 mM angiotensin I, 0.0002 μl of human or dog chymase solution and 2 μl of a dimethylsulfoxide solution of the present compound were added into a 1.5 ml test tube and incubated at 37° C. for 15 min. At the end of the reaction, produced angiotensin II was immediately determined by high performance liquid chromatography […] the chymase activity to calculate 50% inhibitory concentration (IC50: nM).
The test was conducted several times. Chymase was prepared for each test in the manner described above. The compounds prepared in the above-described Examples were used for the test.

| SMILES | inhibitory activity on chymase (in words) | IC50 [nM] |
| --- | --- | --- |
| O=C(Cn1c(-c2ccccc2)ncc(CO)c1=O)NC(Cc1ccccc1)C(=O)C(=O)CCCOc1ccccn1 (stereo not shown) [Compound 2, 2-(5-hydroxymethyl-4-oxo-2-phenyl-3,4-dihydropyrimidin-3-yl)-N-{2,3-dioxo-1-phenylmethyl-6-(2-pyridyloxy)} hexylacetamide] | powerful inhibitory activity on chymase | 27 |
| CCOC(=O)c1cnc(-c2ccccc2)n(CC(=O)NC(Cc2ccccc2)C(=O)C(=O)CCCOc2ccccn2)c1=O (stereo not shown) [Compound 4, 2-(5-ethoxycarbonyl-4-oxo-2-phenyl-3,4-dihydro-pyrimidin-3-yl)-N-{2,3-dioxo-1-phenylmethyl-6-(2-pyridyl-oxy)}hexylacetamide] |  | 490 |
| COCc1cnc(-c2ccccc2)n(CC(=O)NC(Cc2ccccc2)C(=O)C(=O)CCCOc2ccccn2)c1=O (stereo not shown) [Compound 3, 2-(5-methoxymethyl-4-oxo-2-phenyl-3,4-dihydropyrimidin-3-yl)-N-{2,3-dioxo-1-phenylmethyl-6-(2-pyridyloxy)} hexylacetamide] | powerful inhibitory activity on chymase | 22 |
| CC(=O)OCc1cnc(-c2ccccc2)n(CC(=O)NC(Cc2ccccc2)C(=O)C(=O)CCCOc2ccccn2)c1=O (stereo not shown) [Compound 1, 2-(5-acetyloxymethyl-4-oxo-2-phenyl-3,4-dihydro-pyrimidin-3-yl)-N-{2,3-dioxo-1-phenylmethyl-6-(2-pyridyloxy)}hexylacetamide] | powerful inhibitory activity on chymase | 26 |
